Structures can show the parent of a compound that is named as a salt.
Biological target: ROCK2 (Homo sapiens (Human), UniProt O75116)
Test: biochemical
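Further: rho kinase enzyme reaction halted with EDTA, phospho- and non-phospho peptide separated for read-out, kinase activity inhibition derived across a dose-response series, DMSO under 2%.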

ROCK2, sequence (O75116 whole entry, species assumed): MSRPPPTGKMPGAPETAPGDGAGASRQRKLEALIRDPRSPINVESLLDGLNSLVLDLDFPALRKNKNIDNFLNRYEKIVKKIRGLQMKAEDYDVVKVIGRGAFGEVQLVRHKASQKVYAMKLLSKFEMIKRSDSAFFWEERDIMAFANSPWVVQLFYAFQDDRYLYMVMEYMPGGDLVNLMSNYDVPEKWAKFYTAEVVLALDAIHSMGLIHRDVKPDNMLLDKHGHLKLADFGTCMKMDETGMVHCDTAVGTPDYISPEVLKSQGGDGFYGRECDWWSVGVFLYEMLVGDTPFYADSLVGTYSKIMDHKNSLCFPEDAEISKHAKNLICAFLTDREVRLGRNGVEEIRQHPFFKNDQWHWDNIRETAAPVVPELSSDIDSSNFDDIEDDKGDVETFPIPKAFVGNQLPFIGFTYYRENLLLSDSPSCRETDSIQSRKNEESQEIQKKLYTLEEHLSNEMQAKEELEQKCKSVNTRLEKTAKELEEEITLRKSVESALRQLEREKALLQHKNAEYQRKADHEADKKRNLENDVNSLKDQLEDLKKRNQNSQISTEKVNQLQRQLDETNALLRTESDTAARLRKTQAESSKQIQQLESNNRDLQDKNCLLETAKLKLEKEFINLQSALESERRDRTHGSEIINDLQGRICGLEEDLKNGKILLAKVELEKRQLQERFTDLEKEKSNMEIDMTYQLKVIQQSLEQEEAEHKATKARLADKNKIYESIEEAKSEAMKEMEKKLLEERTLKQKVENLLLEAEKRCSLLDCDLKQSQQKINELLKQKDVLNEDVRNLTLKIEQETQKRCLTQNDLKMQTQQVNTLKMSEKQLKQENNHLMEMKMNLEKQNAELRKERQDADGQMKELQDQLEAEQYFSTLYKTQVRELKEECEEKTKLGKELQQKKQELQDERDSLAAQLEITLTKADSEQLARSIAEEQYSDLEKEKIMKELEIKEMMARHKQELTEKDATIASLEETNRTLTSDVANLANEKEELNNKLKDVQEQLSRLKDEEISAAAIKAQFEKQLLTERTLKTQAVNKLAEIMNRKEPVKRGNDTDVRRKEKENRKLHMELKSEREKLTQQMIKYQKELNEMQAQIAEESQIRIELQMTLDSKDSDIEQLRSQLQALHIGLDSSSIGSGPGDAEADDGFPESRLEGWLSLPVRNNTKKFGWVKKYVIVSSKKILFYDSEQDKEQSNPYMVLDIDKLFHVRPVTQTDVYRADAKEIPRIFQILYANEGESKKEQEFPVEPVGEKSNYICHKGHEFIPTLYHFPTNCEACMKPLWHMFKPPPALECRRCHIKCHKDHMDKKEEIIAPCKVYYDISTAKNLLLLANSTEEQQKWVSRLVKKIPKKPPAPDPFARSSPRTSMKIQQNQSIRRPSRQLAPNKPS

Compound	IC50
COc1cccc(N(C)C2CCN(c3ccc(-c4cn[nH]c4)cc3)C2=O)c1 (single isomer, unassigned) [Example 31, 1-(4-(1H-pyrazol-4-yl)phenyl)-3-((3-methoxyphenyl)(methyl)amino)pyrrolidin-2-one]	100 to 2200 nM
O=C1C(Cc2ccccc2Cl)CCN1c1ccc(-c2cn[nH]c2)cc1 (stereo not shown) [Example 95, 1-(4-(1H-pyrazol-4-yl)phenyl)-3-(2-chlorobenzyl)pyrrolidin-2-one]	100 to 2200 nM
O=C1C(Cc2c(F)cccc2F)CCN1c1ccc(-c2cn[nH]c2)cc1 (stereo not shown) [Example 94, 1-(4-(1H-pyrazol-4-yl)phenyl)-3-(2,6-difluorobenzyl)pyrrolidin-2-one]	100 to 2200 nM
COc1cc(NC2CCN(c3ccc(-c4cn[nH]c4)c(C(F)(F)F)c3)C2=O)ccc1F (single isomer, unassigned) [Example 371, 1-(4-(1H-pyrazol-4-yl)-3-(trifluoromethyl)phenyl)-3-((4-fluoro-3-methoxyphenyl)amino)pyrrolidin-2-one]	100 to 2200 nM
COc1c(F)cccc1NC1CCN(c2ccc(-c3cn[nH]c3)cc2)C1=O (single isomer, unassigned) [Example 16, 1-(4-(1H-pyrazol-4-yl)phenyl)-3-((3-fluoro-2-methoxyphenyl)amino)pyrrolidin-2-one]	100 to 2200 nM
COc1nc(N2CCC(N3CC[C@@H](N(C)C)C3)C2=O)ccc1-c1cn[nH]c1 (mixture of isomers) [Example 293, (3R)-3-(dimethylamino)-1′-(6-methoxy-5-(1H-pyrazol-4-yl)pyridin-2-yl)-[l,3′-bipyrrolidin]-2′-one]	100 to 2200 nM
COc1cccc([C@@H](C)NC2CCN(c3ccc(-c4cn[nH]c4)cc3)C2=O)c1 (stereo partly drawn) [Example 60, 1-(4-(1H-pyrazol-4-yl)phenyl)-3-(((R)-1-(3-methoxyphenyl)ethyl)amino)pyrrolidin-2-one, TFA]	100 to 2200 nM
COc1cccc(NC2CCN(c3ccc(-c4cn[nH]c4)c(C#N)c3)C2=O)c1 (single isomer, unassigned) [Example 377, 5-(3-((3-methoxyphenyl)amino)-2-oxopyrrolidin-1-yl)-2-(1H-pyrazol-4-yl)benzonitrile]	100 to 2200 nM
CCc1nc(N2CCC(Nc3ccc(F)c(OCC4CC4)c3)C2=O)ccc1-c1cn[nH]c1 (single isomer, unassigned) [Example 212, 3-((3-(cyclopropylmelhoxy)-4-fluorophenyl)amino)-1-(6-ethyl-5-(1H-pyrazol-4-yl)pyridin-2-yl)pyrrolidin-2-one]	100 to 2200 nM
COc1cc(NC2CCN(c3ccc(-c4cn[nH]c4)c(C)c3)C2=O)cc(OC)c1 (single isomer, unassigned) [Example 366, 3-((3,5-dimethoxyphenyl)amino)-1-(3-methyl-4-(1H-pyrazol-4-yl)phenyl) pyrrolidin-2-one]	100 to 2200 nM
O=C1C(CCc2ccccc2Cl)CCN1c1ccc(-c2cn[nH]c2)cc1 (stereo not shown) [Example 100, 1-(4-(1H-pyrazol-4-yl)phenyl)-3-(2-chlorophenethyl)pyrrolidin-2-one]	100 to 2200 nM
COCc1cc(N2CCC(Nc3cccc(OC)c3)C2=O)ccc1-c1cn[nH]c1 (single isomer, unassigned) [Example 183, 1-(3-(methoxymethyl)-4-(1H-pyrazol-4-yl)phenyl)-3-((3-methoxyphenyl)amino) pyrrolidin-2-one]	100 to 2200 nM
COc1nc(N2CCC(N3CCOCC3)C2=O)ccc1-c1cn[nH]c1 (racemic) [Example 273, 1-(6-methoxy-5-(1H-pyrazol-4-yl)pyridin-2-yl)-3-morpholinopyrrolidin-2-one]	10 to 100 nM
COc1cccc(NC2CCN(c3ccc(-c4cn[nH]c4)cc3Cl)C2=O)c1 (single isomer, unassigned) [Example 166, 1-(2-chloro-4-(1H-pyrazo1-4-yl)phenyl)-3 ((3-methoxyphenyl)amino)pyrrolidin-2-one]	100 to 2200 nM
COc1cccc(NC2CCN(c3ccc(-c4cn[nH]c4)nc3)C2=O)c1 (single isomer, unassigned) [Example 297, 1-(6-(1H-pyrazol-4-yl)pyridin-3-yl)-3-((3-methoxyphenyl)amino)pyrrolidin-2-one]	10 to 100 nM
O=C1C(Cc2cccc(F)c2)CCN1c1ccc(-c2cn[nH]c2)cc1 (stereo not shown) [Example 91, 1-(4-(1H-pyrazol-4-yl)phenyl)-3-(3-fluorobenzyl)pyrrolidin-2-one]	100 to 2200 nM
CCc1cc(N2CCC(Nc3cccc(OCC4CC4)c3)C2=O)ccc1-c1cn[nH]c1 (single isomer, unassigned) [Example 248, 3-((3-(cyclopropylmethoxy)phenyl)amino)-1-(3-ethyl-4-(1H-pyrazol-4-yl)phenyl)pyrrolidin-2-one]	100 to 2200 nM
O=C1C(c2cccc(F)c2)CCN1c1ccc(-c2cn[nH]c2)cc1 (stereo not shown) [Example 102, 1-(4-(1H-pyrazol-4-yl)phenyl)-3-(3-fluorophenyl)pyrrolidin-2-one]	100 to 2200 nM
CCc1nc(N2CCC(Nc3ccc(F)c(OC)c3)C2=O)ccc1-c1cn[nH]c1 (single isomer, unassigned) [Example 318, 1-(6-ethyl-5-(1H-pyrazol-4-yl)pyridin-2-yl)-3-((4-fluoro-3-methoxyphenyl)amino) pyrrolidin-2-one]	10 to 100 nM
COc1nc(N2CCC(N3CCC(=O)CC3)C2=O)ccc1-c1cn[nH]c1 (racemic) [Example 292, 1-(1-(6-methoxy-5-(1H-pyrazol-4-yl)pyridin-2-yl)-2-oxopyrrolidin-3-yl)piperidin-4-one hydrochloridehydrate]	10 to 100 nM
COc1ccc(NC2CCN(c3ccc(-c4cn[nH]c4)c(OC)c3)C2=O)c(F)c1 (single isomer, unassigned) [Example 152, 3-((2-fluoro-4-methoxyphenyl)amino)-1-(3-methoxy-4-(1H-pyrazol-4-yl)phenyl) pyrrolidin-2-one]	100 to 2200 nM
COc1cccc(NC2CCN(c3ccc(-c4ccnc(F)c4)c(OC)n3)C2=O)c1 (racemic) [Example 127, 1-(2′-fluoro-2-methoxy-[3,4′-bipyridin]-6-yl)-3-((3-methoxyphenyl)amino)pyrrolidin-2-one]	10 to 100 nM
COc1ccc(C(=O)OC2CCN(c3ccc(-c4cn[nH]c4)cc3)C2=O)c(N)c1 (racemic) [Example 327, 1-(4-(1H-pyrazol-4-yl)phenyl)-2-oxopyrrolidin-3-yl2-amino-4-methoxybenzoate]	100 to 2200 nM

Results, then the compound that gave them:

IC50	Compound
< 10 nM	COc1nc(N2CCC(Nc3ccccc3F)C2=O)ccc1-c1cn[nH]c1 (racemic) [Example 224, 3-((2-fluorophenyl)amino)-1-(6-methoxy-5-(1H-pyrazol-4-yl)pyridin-2-yl)pyrrolidin-2-one]
10 to 100 nM	COc1cc(N2CCC(Nc3cccc(OC(F)F)c3)C2=O)ccc1-c1cn[nH]c1 (stereo not shown) [Example 69, 3-((3-(difluoromethoxy)phenyl)amino)-1-(3-methoxy-4-(1H-pyrazol-4-yl)phenyl)pyrrolidin-2-one]
< 10 nM	COc1cc(N2CCC(Nc3ccccc3)C2=O)ccc1-c1cn[nH]c1 (stereo not shown) [Example 67, 1-(3-methoxy-4-(1H-pyrazol-4-yl)phenyl)-3-(phenylamino)pyrrolidin-2-one]
10 to 100 nM	COc1cccc(NC2CCN(c3ccc(-c4ccnc5[nH]ccc45)cc3)C2=O)c1 (single isomer, unassigned) [Example 81, 1-(4-(1H-pyrrolo[2,3-b]pyridin-4-yl)phenyl)-3-((3-methoxyphenyl)amino)pyrrolidin-2-one]
10 to 100 nM	CCc1nc(N2CCC(Nc3cc(F)cc(OC)c3)C2=O)ccc1-c1cn[nH]c1 (single isomer, unassigned) [Example 315, 1-(6-ethyl-5-(1H-pyrazol-4-yl)pyridin-2-yl)-3-((3-fluoro-5-methoxyphenyl)amino) pyrrolidin-2-one]
< 10 nM	O=C1C(Nc2cccc(OCC3CC3)c2)CCN1c1ccc(-c2cn[nH]c2)cc1 (stereo not shown) [Example 11, 1-(4-(1H-pyrazol-4-yl)phenyl)-3-((3-(cyclopropylmethoxy)phenyl)amino)pyrrolidin-2-one]
10 to 100 nM	COc1nc(N2CCC(Nc3cccc(OC(C)C)c3)C2=O)ccc1-c1cn[nH]c1 (racemic) [Example 267, 3-((3-isopropoxyphenyl)amino)-1-(6-methoxy-5-(1H-pyrazol-4-yl)pyridin-2-yl)pyrrolidin-2-one]
10 to 100 nM	COc1cccc(N(C)C2CCN(c3ccc(-c4cn[nH]c4)cc3)C2=O)c1 (single isomer, unassigned) [Example 30, 1-(4-(1H-pyrazol-4-yl)phenyl)-3-((3-methoxyphenyl)(methyl)amino)pyrrolidin-2-one]
10 to 100 nM	CCOc1cc(N2CCC(Nc3cccc(OC)c3)C2=O)ccc1-c1cn[nH]c1 (single isomer, unassigned) [Example 35, 1-(3-ethoxy-4-(1H-pyrazol-4-yl)phenyl)-3-((3-methoxyphenyl)amino)pyrrolidin-2-one]
10 to 100 nM	O=C1C(Nc2cccc(OC(F)(F)F)c2)CCN1c1ccc(-c2cn[nH]c2)cc1 (stereo not shown) [Example 8, 1-(4-(1H-pyrazol-4-yl)phenyl)-3-((3-(trifluoromethoxy)phenyl)amino)pyrrolidin-2-one]
10 to 100 nM	COc1cccc(NC2CCN(c3ccc(-c4cn[nH]c4)c(Cl)c3)C2=O)c1 (single isomer, unassigned) [Example 165, 1-(3-chloro-4-(1H-pyrazo1-4-yl)phenyl)-3 ((3-methoxyphenyl)amino)pyrrolidin-2-one]
10 to 100 nM	O=C1C(Nc2cccc(OC(F)F)c2)CCN1c1ccc(-c2cn[nH]c2)c(F)c1 (single isomer, unassigned) [Example 355, 3-((3-(difluoromethoxy)phenyl)amino)-1-(3-fluoro-4-(1H-pyrazol-4-yl)phenyl) pyrrolidin-2-one]
10 to 100 nM	COc1nc(N2CCC(N3CCS(=O)(=O)CC3)C2=O)ccc1-c1cn[nH]c1 (racemic) [Example 280, 3-(1,1-dioxidothiomorpholino)-1-(6-methoxy-5-(1H-pyrazol-4-yl)pyridin-2-yl)pyrrolidin-2-one]
< 10 nM	COc1nc(N2CCC(Nc3cccc(OCC4CC4)c3)C2=O)ccc1-c1cn[nH]c1 (single isomer, unassigned) [Example 214, 3-((3-(cyclopropylmethoxy)phenyl)amino)-1-(6-methoxy-5-(1H-pyrazol-4-yl)pyridin-2-yl)pyrrolidin-2-one]
